Measurements taken from patent US7563862B2, “Neural regeneration peptides and methods for their use in treatment of brain damage” (Neuren Pharmaceuticals Limited, priority 2001, dated 2009).
Ends that are not written are not given here.

Legend:
[1] = test system: OTCs of rat embryonic forebrain; test: embryonic forebrain OTC migration assay (medial ganglionic eminence to cortical anlage); format: cell-based
Experimental: OTCs of rat embryonic forebrain were prepared as described. Briefly, pregnant rats at E17 gestation were sacrificed, the fetuses rapidly removed. Coronal slices of the forebrain were cut at 400 μm thickness and placed onto millicell PICM ORG50 membranes (Millipore) in 3 cm Petri dishes containing 1 ml of DMEMI/F12, 6.5 mg/ml glucose, 0.1 mM glutamine and 10% FCS for 34 hrs. Afterwards the medium was exchanged to 1 ml Neurobasal/B27, 6.5 mg/ml glucose, 0.1 mM glutamine, to which 10 μl PBS, NRP, or SDF-1 were added for the indicated concentrations and a small DiI (1,1′-dioctodecycyl-3,3,3′3-tetramethylindocarbocyanine) crystal of uniform size was placed in the medial ganglionic eminence (n=10-15) under a stereomicroscope. After 24 hrs cultivation the total number or migrated neurons dispersed in the ganglionic eminence and cortex were counted under an inverted fluorescent microscope.

[2] = test system: human olfactory ensheating glial (OEG) cells; test: proliferation of olfactory ensheating glial (OEG) cells; format: cell-based; details: over 72 hours
Experimental: To determine whether NRPs might be useful for remyelinating neural tissues, we carried out studies using human olfactory ensheating glial (OEG) cells. OEG cells are being evaluated as a source population of cells for repopulating damaged neural tissue, such as that of the spinal cord. OEG cells were obtained from scrapings of human nasal mucosa using methods that are known in the art. Cells were grown in medium under control conditions and in the presence of NRP-7 SW (SEQ ID NO:24).

embryonic striatal cells = test: haptotactic migration assay, striatal cells; format: cell-based, rat; details: dishes coated with 150 ng, 48 hrs
Description: To test the cell adhesion and neuronal migration inducing properties of the NRPs a haptotactic migration cell assay was developed (Lu et al.,2001). For this purpose Transwell® cell culture dishes (Costar) with fitting inserts having pores therein with a 12 μm pore size were used to cultivate striatal and neocortical cells. In general, a test agent was adhered to the surface of a culture dish and an insert having pores was placed in culture medium over but not in contact with the surface of the culture dish. Test cells were placed in the inserts, and any cells migrating through the pores and onto the surface of the culture dish reflected chemattractiveness by the test molecule. Under these conditions, the surface of the culture dish would, over time, release some NRP molecules into the culture medium. It can be appreciated that the concentration of “free” NRP would be greater nearer the surface of the culture dish than at distances farther away from the culture dish, thereby creating a gradient in NRP concentration. […] By counting the number and morphology of such migrant cells, effects of NRPs on neuronal migration and differentiation can be evaluated. […]
For seeding striatal cells, 1.5 ml of Neurobasal/B27 medium was put into the culture dishes and 0.5 ml of NeurobasaVB27 medium was put into the insert. The assay was ready for cell seeding. […]

Row | Substance | increase in number of migrating neuronal precursor cells [1] | optimum dose [1] | rate of growth of OEG cells [2] | migration induction of striatal neurons (embryonic striatal cells)
1 | SEPEARRAPGRKGGVVCASLAADW-NH2 [NRP-7 segment SW, 24-mer form of mouse NRP-7] | 5 fold | 1 nM | about 50% | 
2 | KDPEARRAPGSLHPCLAAS-NH2 [NRP-2 segment KS, 19-mer fragment of NRP-2] |  |  |  | substantial migration induction
